According to patent EP0470323A2, “New salts of the nicotinic acid with aminobenzylic compounds and their pharmaceutical use” (BROMLEY LIMITED, priority 1990, dated 1992):

Legend:
[1] = system: skin temperature of the mouse's paw; assay: Peripheral vessel-dilating activity in the mouse (skin temperature of hind paws); assay type: in vivo; conditions: for Temperature (°C) of the hind paws (n=10): intravenous, dose 0,030 mM/kg/iv; for Temperature (°C) of the hind paws: oral, dose 0,500 mM/kg/os
Protocol: The method of Richter W. (Acta Pharm. Toxicol. 21, 91; 1974) was used; it consists in determining, at fixed time intervals after the treatment, the skin temperature of the mouse's paw, by keeping the animals in rooms at a constant temperature of 21°C.
Some groups of ten male mouses each have been used; the weight of each animal was 30 g approximately.
The compound according to the Example 1 has been tested "per os" at three basic levels of the doses (0,125 - 0,25 - 0,5 mM/kg) and by intravenous injection at two dose levels (0,015 and 0,03 mM/kg), in comparison with one sole dose of Papaverin and chlorhydrated Buflomedil (0,5 mM/kg "per os" and 0,03m M/kg intravenous). The observation of the skin temperature at the mouse's paw was made before the treatment, 30, 60 and 120 minutes after the "per os" treatment, […] (A-Hl Ellab) connected with an Ellab electric recorder. Of each animal the temperature of both hind paws has been measured, and the values obtained have been averaged .

[2] = system: Central artery of a rabbit's ear; assay: In vitro antispastic action, adrenalin-induced spasm of the perfused isolated artery; conditions: for % inhibi-tions of the con-tractions: spasm induced by Adrenalin, n=4
Protocol: An "in vitro" method has been used, according to which the withdrawal of the central artery of a rabbit's ear with the relevant nervous connections and the equipment of an appropriate seat for secluded organs was designed (Fleckenstein A., British Journal of Pharmacology 7, 533, 1952).
On the artery they did install a three-ways tube, connected with a peristaltic pump and with a mercury manometer to record the perfusion pressure. The artery was perfused with a rebs liquid at the speed of 2,5 ml/minute. The contractions were induced by injecting into the vessel 0,1 ml adrenalin at the concentration of 1 mcg/ml. The compound according to the example 1 has been added to the bath at concentrations of 0,5 - 1 - 2 uM, five minutes before the adrenalin (four preparations per concentration). As comparison drugs, chlorhydra ted Buflomedil and Papaverin have been used. The activity of the material under investigation has been appreciated in terms of percentages referring to the concentration induced by the Adrenalin (and expressed with DE₅₀) and the relevant forbidding.

[3] = system: aggregation of the platelets caused by the collagene; assay: Anti-aggregating ex vivo activity against collagen in the rat; conditions: rat, 1,00 mM/kg os for 4 days
Protocol: Six groups of 15 male rats of 200 - 250 g have been used.
The blood taken from the three rats of each group has been mixed and centrifuged during 6 minutes at 1400 rpm, at room temperature. After having taken the plasma full of platelets (PRP) the thereunder floating material has been centrifuged again (4000 rpm during 10 minutes) in order to have the plasma with few platelets (PPP) separated from the balance. The PRP has been diluted with a part of PPP in order to bring the number of platelets to 350 ± 50 x 10³/mm³. The aggregation has been evaluated in accordance with the method of Minsker D.H. and coll. (J. Pharmacol.Exp.Ther. 210 37 1979) by using an ELVI 840 two-channels aggregometer and an Omniscribe recorder B.500. A quantity of 0,25 ml PRP has been used, transferred into the aggregometer for two minutes at 37°C and stirred at 1000 rpm. The light intensity was arranged in such a way, to obtain 0% transmittance with the PRP and 100% with the PPP. After 2′ incubation, by means of microsyringe the collagene was added to the PRP in a volume quantity of 5 mcl with the final concentration of 4 mcg/ml.
From the aggregation trace of the recorder the following data have been evaluated: • a) latent time of the aggregation (seconds between the introductions of collagene and the starting of the aggregation) • b) transmittance increase percentage (maximum aggregation). The same proceeding was repeated for all animals, always by mixing the blood of three rats belonging to the same group and by obtaining in this manner five aggregation curves per group.

[4] = system: Hypercholesterolaemia caused by Trit WR1339 in the mouses; assay: Hypercholesterolaemia of the mouse caused by Triton WR 1339; assay type: in vivo; conditions: dose 2 mM/kg per os
Protocol: The method described by Garattini S. (Arzneim,Forsch 9, 206; 1959) with some modifications has been followed.
The mouses used have been males of 22 to 28 grams body weight, on an empty stomach but with water "ad libitum" since 12 hours. The hyperlipidaemia was induced by means of an intraperitoneum administration of […] of Triton WR 1339, with dosage 300 mg/kg in a physiological solution. The subject products were administered at the same time in clear plain water, always in a volume of […] by means of a gastric probe. The animals were sacrified after 20 hours, by cutting them the carotids. The blood was collected in some plastic test-tubes, and was centrifuged at 3500 rpm for ten minutes. Thereafter the total cholesterol (Sornay R and colleagues, Arzeneim Forsch, 26,885 1976) and the total lipids (Chonhelmer R and colleagues, Biological Chemistry 106, 745, 1934) were determined.

[5] = system: hypertrigliceridaemia from olive oil in the rats; assay: Hypertriglyceridaemia from olive oil in the rat (serum lactescence); assay type: in vivo; conditions: dose 2 mM/kg/os
Protocol: The method described by Zucker I.H. (Sci. Anal. Lab. 24, 114, 1972) has been followed.
Male rats have been used, whose body weight was 150-200 g. The animals were without eating with water "ad libitum" and all this beginning 24 hours before the experiment. The hyperlipaemia was induced by the administration of olive oil by mouth; its composition as to the fat acids was as follows: palmitic acid 10% palmitoleic acid 1%, stearic acid 3%, […] and linoleic acid 7% (all percentages are by weight). The quantity of olive oil administered, by means of a gastric probe, was 10 ml/kg. The treatments were made by finely pounding with a china mortar and by suspending in the olive oil the examined compounds. […] The positive control animals received only olive oil; moreover, there was also a group of negative control animals who received plain water in quantities of 10 ml/kg. Every three hours a group of rats (10) was killed in a light ethereal anaesthesia, in order to be able to appreciate the percentage of triglycerides in the blood. The animals were bled by cutting them the carotids and the blood was collected in plastic test-tubes, capacity 10 ml each, and was centrifuged for ten minutes at 3500 rpm. The evaluated parameter was the lactescence of the serum, which is directly proportional to the contents of kilomicrons and therefore of triglycerides (Zucker, see above the mention). The serum has been diluted 1:5 in a physiologic solution and was read at the spectrophotometer at […] against white (physiologic solution). From the individual optical Density (D.O.) data one could calculate for each group the average of the standard error. The statistical analysis was performed by means of the t of Dunnett.

[6] = system: Hypertriglyceridaemia caused by ethanole in the rats; assay: Hypertriglyceridaemia caused by ethanol in rats, activity at three dose levels; assay type: in vivo; conditions: rat
From the text: (§1) For this test group the methods described by Sistori C.R. and colleagues (Atherosclerosis 30, 45; 1978) is followed.
(§2) The hypertriglyceridaemia has been induced into the male rats having a body weight of 160 - 170 g by giving them to drink, for 4 consecutive days, a solution of 10% ethanole in water.

[7] = system: Hypertriglyceridaemia caused by ethanole in the rats; assay: Hypertriglyceridaemia caused by ethanol in rats, duration of the effects; assay type: in vivo; conditions: rat, dose 1 mM/kg/os
From the text: as §1, §2
In order to perform the particular kinetics of the compound in accordance with the example 1 following the instant invention, it was considered appropriate, anyway, to evaluate the duration of the hypolipaemizing effect in comparison to that of the nicotinic acid.
A group of normal animals was treated with the vehicle only and did serve as a negative control group.

[8] = 0 minutes (before the treatment)
[9] = PRP 2 hours after last treatment, collagene 4 mcg/ml
[10] = 20 hours after Triton WR 1339 i.p.

COc1ccc(Cc2nccc3cc(OC)c(OC)cc23)cc1OC [Papaverin, reference compound]
Temperature (°C) of the hind paws (n=10) [1, 8]: 24,5 ± 0,28 °C | Temperature (°C) of the hind paws (n=10) ([1]; 30 minutes from the treatment): 26,6 ± 0,25 °C | Temperature (°C) of the hind paws (n=10) ([1]; 60 minutes from the treatment): 25,7 ± 0,20 °C | Temperature (°C) of the hind paws (n=10) ([1]; 120 minutes from the treatment): 25,5 ± 0,23 °C | Temperature (°C) of the hind paws [1, 8]: 24,8 ± 0,35 °C | Temperature (°C) of the hind paws ([1]; 30 minutes from the treatment): 25,5 ± 0,21 °C | Temperature (°C) of the hind paws ([1]; 60 minutes from the treatment): 25,9 ± 0,25 °C | Temperature (°C) of the hind paws ([1]; 120 minutes from the treatment): 25,1 ± 0,30 °C | EC50 ([2]; Oryctolagus cuniculus, read-out: DE50): 0.76 µM | % inhibi-tions of the con-tractions ([2]; concentration 0,5 μ M): 33% | % inhibi-tions of the con-tractions ([2]; concentration 1,0 μ M): 64% | % inhibi-tions of the con-tractions ([2]; concentration 2,0 μ M): 81%

O=C(O)c1cccnc1 [Nicotinic acid, nicotinic acid]
Latency time, % variation vs controls [3]: +8,0% | Transmittance percentage, % variation vs controls [3]: -13,0% | Latency time (sec.) [3, 9]: 40,5 ± 4,0 sec. | Transmittance percentage (maximum aggregation) [3, 9]: 68,4 ± 5,2% | Tot.Cholesterol M ± E.S. [4, 10]: 215 ± 16 mg/100 ml | Tot.Lipids M ± E.S. [4, 10]: 1643 ± 131 mg/100 ml | Tot.Cholesterol % vs contr. ([4]; reduction): 39,9% | Tot.Lipids % vs contr. ([4]; reduction): 32,5% | Serum opt.density at the indicated times (M ± E.S.) ([5]; 3 h): 258 ± 14,9 | Serum opt.density at the indicated times (M ± E.S.) ([5]; 6 h): 1312 ± 58,2 | Serum opt.density at the indicated times (M ± E.S.) ([5]; 9 h): 1161 ± 53,2 | Serum opt.density at the indicated times (M ± E.S.) ([5]; 12 h): 1000 ± 31,3 | Serum opt.density at the indicated times (M ± E.S.) ([5]; 15 h): 510 ± 18,4 | Serum opt.density at the indicated times (M ± E.S.) ([5]; 18 h): 250 ± 21,4 | Triglycerids M ± E.S. ([6]; dose 1,0 mM/kg/os once a day for 4 days, 4 hours after last treatment): 156,4 ± 18,1 mg/100 ml | Triglycerids % vs contr. positivi ([6]; dose 1,0 mM/kg/os, 4 hours after treatment): -24,7% | decrease (of triglycerides vs positive controls) ([6]; dose of 1 mM/kg per os): 24,7% | % variation vs positive controls (Trigliceridi) ([7]; 4 h): -29,4% | Trigliceridi ([7]; 4 h from the last treatment): 181,6 ± 15,7 mg/100 ml | % variation vs positive controls (Trigliceridi) ([7]; 6 h): -25,5% | Trigliceridi ([7]; 6 h from the last treatment): 176,0 ± 11,2 mg/100 ml | % variation vs positive controls (Trigliceridi) ([7]; 12 h): -10,3% | Trigliceridi ([7]; 12 h from the last treatment): 184,6 ± 8,9 mg/100 ml | % variation vs positive controls (Trigliceridi) ([7]; 16 h): -3,1% | Trigliceridi ([7]; 16 h from the last treatment): 180,7 ± 14,5 mg/100 ml | % variation vs positive controls (Trigliceridi) ([7]; 24 h): +7,9% | Trigliceridi ([7]; 24 h from the last treatment): 178,4 ± 9,7 mg/100 ml
